In patent US20080312128A1, “Cellular Biomarker Antioxidant Assay and Uses Thereof” (priority 2005, published 2008):
Like-named read-outs stand apart in the source and are kept apart here.

Columns and labels:
FosB = details: ARPE-19 cells
Description: For OS studies, ARPE19 cells were incubated for 1 hour at 37° C. in conditioned NR-1 media containing 50-500 μM H202. Cells were either not rinsed (1-, 2-, and 4-hour isolations) or rinsed using the Media Rinse 2 method (4-, 8-, and 24-hour isolations). At designated time-points, NR-1 medium was aspirated and the total cellular RNA was immediately isolated in TRI reagent (Sigma). Single wells were used in each plate to minimize any influence of temperature shifts on gene expression. All procedures were performed in a dim red light environment to reduce any influence of light on gene expression. RNA was isolated either before the onset of OS(O-hour control), or at 1, 2, 4, 8, or 24 hours after the start of the 1-hour OS treatment.
Assays of oxidative stress as described above with RPE cells were performed using the “no touch” technique, to determine whether OS-specific responses of FosB gene expression occurred during the first 8 hours after induction of stress. In addition, a dose-response study of FosB gene expression was performed to determine whether the degree of OS could be quantified using this molecular response.
(§1) Human retinal pigment epithelial (RPE) cells (ARPE-19) were cultured in DMEM/F12 media supplemented with 10% fetal bovine serum (FBS, Atlanta Biologicals, Norcross, Ga.) plus L-glutamine, penicillin, and streptomycin in an atmosphere of humidified 95% air and 5% CO2 at 37° C. until confluent in single wells of 6-well plates. The cells were initially grown in DMEM/F12 with FBS to reduce the time to reach confluence. Cells were then rinsed and fed with NR-1 media (BioSource, Camarillo, Calif.). NR-1 is a chemically defined tissue culture medium supplemented with EGF, insulin, hydrocortisone, and transferrin. After feeding with NR-1, the confluent cells were cultured for 3 days to stabilize gene expression.
(§2) The OS was not rinsed from the culture; rather, the NR-1 medium was aspirated and TRI Reagent (Sigma, St. Louis, Mo.) was immediately added to lyse the cells and stabilize the RNA at the designated time-points.
(§3) Total cellular RNA was isolated from the cells at time points 0, 1, and 4 hours using TRI reagent as described above using the protocol recommended by the manufacturer. The RNA was cleaned of trace DNA contaminants by treatment with DNA-Free (Ambion, Austin, Tex.) and the concentration was measured by spectrophotometry. The purified RNA was dissolved in DEPC-treated double distilled water at the concentration of 0.2 mg/ml. and stored at −80° C.
(§4) One μg of total cellular RNA was reversed transcribed (RT) in 20 μL of reaction volume using the Reverse Transcription System using the manufacturer's recommended protocol (Promega, Madison, Wis.). The RT product was diluted 1:5 with DNase-free water and quantitative PCR (qPCR) amplification was performed in 50 μl of buffer containing 1×SYBR® Green PCR Master mix (ABI), optimized forward and reverse qPCR primers and 5 μl of the 1:5 diluted RT product. The qPCR reaction was started at a 50° C. hold for 2 minutes, then 95° C. hold for 10 minutes, followed by 40 cycles of 95° C. for 15 seconds, and 60° C. for 1 minute. The reaction was performed using the ABI PRISM® 7700 Sequence Detection System.

ARPE-19 cells = details: confluent cell culture, MTT
FosL = assay: H2O2-induced FosL transcription in cultured RPE cells, qPCR; type: cell-based, human
Description: as §1, with “After feeding with NR-1, the confluent cells were cultured for 3 days to stabilize gene expression.” left out
as §3, with “The purified RNA was dissolved in DEPC-treated double distilled water at the concentration of 0.2 mg/ml. and stored at −80° C.” left out
One μg of total cellular RNA was reversed transcribed (RT) in 20 μL of reaction volume using the Reverse Transcription System using the manufacturer's recommended protocol (Promega, Madison, Wis.). The RT product was diluted 1:5 with DNase-free water and quantitative PCR (qPCR) amplification was performed in 50 μl of buffer containing 1×SYBR® Green PCR Master mix (ABI), optimized forward and reverse qPCR primers and 5 μl of the 1:5 diluted RT product. […]

ATF3 = assay: H2O2-induced ATF3 transcription in cultured RPE cells, qPCR; type: cell-based, human; details: for Fold change in expression, ATF3, 1-Hr / Fold change in expression, ATF3, 4-Hr: ARPE-19 cells
Description: as §1, §2, §3, §4

cFos = assay: H2O2-induced c-Fos transcription in cultured RPE cells, qPCR; type: cell-based, human; details: for Fold change in expression, cFos, 1-Hr / Fold change in expression, cFos, 4-Hr: ARPE-19 cells
Description: as §1, §2, §3, §4

[1] = test system: CRYAA, CRYBB, and CRYGS crystallin genes; assay: H2O2-induced transcription of crystallin genes in cultured RPE cells, qPCR; type: cell-based, human; details: 100 μM and 500 μM H2O2, 1 and 4 hours
Description: Transcription of the above-identified crystallin genes was quantified at 1 and 4 hours in cells exposed to 100 μM and 500 μM H2O2-induced OS, and compared to controls.

JunB = assay: H2O2-induced JunB transcription in cultured RPE cells, qPCR; type: cell-based, human; details: for Fold change, JunB, 1-Hr / Fold change, JunB, 4-Hr: ARPE-19 cells
Description: as §1, §2, §3, §4

HO-1 = assay: H2O2-induced HO-1 transcription in cultured RPE cells, qPCR; type: cell-based, human; details: for Fold change, HO-1, 1-Hr / Fold change, HO-1, 4-Hr: ARPE-19 cells
CRYBA = details: ARPE-19 cells
Description: as §1, §2, §3, §4

SMILES: OO [H2O2]
- Fold change in expression, FosB, 1-Hr (FosB; 50 μM H2O2, 1 h): 2 fold
- Fold change in expression, FosB, 4-Hr (FosB; 50 μM H2O2, 4 h): 2 fold
- Fold change in expression, FosB, 1-Hr (FosB; 100 μM H2O2, 1 h): 2 fold
- Fold change in expression, FosB, 4-Hr (FosB; 100 μM H2O2, 4 h): 6 fold
- Fold change in expression, FosB, 1-Hr (FosB; 200 μM H2O2, 1 h): 6 fold
- Fold change in expression, FosB, 4-Hr (FosB; 200 μM H2O2, 4 h): 6 fold
- Fold change in expression, FosB, 1-Hr (FosB; 350 μM H2O2, 1 h): 6 fold
- Fold change in expression, FosB, 4-Hr (FosB; 350 μM H2O2, 4 h): 20 fold
- Fold change in expression, FosB, 1-Hr (FosB; 500 μM H2O2, 1 h): 16 fold
- Fold change in expression, FosB, 4-Hr (FosB; 500 μM H2O2, 4 h): 64 fold
- 500 μM H2O2 for up to 4-hours as percent of dose required to induce 10% cell death (LD10) (ARPE-19 cells): 55%
- Increase in FosL transcription compared to controls (FosL; 4 hours after OS, highest OS dose): 3 fold
- Increase in FosL transcription (FosL; after 1 hour of OS, 100 μM and 500 μM H2O2): 2 fold
- Increase in ATF3 transcription (ATF3; 1 hour after OS): ~3 fold
- Fold change in expression, ATF3, 1-Hr (ATF3; 50 μM H2O2, 1 h): 0 fold
- Fold change in expression, ATF3, 4-Hr (ATF3; 50 μM H2O2, 4 h): 0 fold
- Fold change in expression, ATF3, 1-Hr (ATF3; 100 μM H2O2, 1 h): 0 fold
- Fold change in expression, ATF3, 4-Hr (ATF3; 100 μM H2O2, 4 h): 0 fold
- Fold change in expression, ATF3, 1-Hr (ATF3; 200 μM H2O2, 1 h): 2 fold
- Fold change in expression, ATF3, 4-Hr (ATF3; 200 μM H2O2, 4 h): 3 fold
- Fold change in expression, ATF3, 1-Hr (ATF3; 350 μM H2O2, 1 h): 2 fold
- Fold change in expression, ATF3, 4-Hr (ATF3; 350 μM H2O2, 4 h): 8 fold
- Fold change in expression, ATF3, 1-Hr (ATF3; 500 μM H2O2, 1 h): 3 fold
- Fold change in expression, cFos, 1-Hr (cFos; 50 μM H2O2, 1 h): 0 fold
- Fold change in expression, cFos, 4-Hr (cFos; 50 μM H2O2, 4 h): 1 fold
- Fold change in expression, cFos, 1-Hr (cFos; 100 μM H2O2, 1 h): 0 fold
- Fold change in expression, cFos, 4-Hr (cFos; 100 μM H2O2, 4 h): 2 fold
- Fold change in expression, cFos, 1-Hr (cFos; 200 μM H2O2, 1 h): 4 fold
- Fold change in expression, cFos, 4-Hr (cFos; 200 μM H2O2, 4 h): 3 fold
- Fold change in expression, cFos, 1-Hr (cFos; 350 μM H2O2, 1 h): 7 fold
- Fold change in expression, cFos, 4-Hr (cFos; 350 μM H2O2, 4 h): 16 fold
- Fold change in expression, cFos, 1-Hr (cFos; 500 μM H2O2, 1 h): 12 fold
- Fold change in expression, cFos, 4-Hr (cFos; 500 μM H2O2, 4 h): 32 fold
- Increase in transcription of c-Fos (maximum) (cFos; after 1 hour of OS, 0-500 μM H2O2): up to 12 fold
- Elevation of c-Fos transcription over controls (cFos; after 4 hours of OS): 8 fold
- Induction of CRYAA, CRYBB, and CRYGS crystallin genes [1]: does not induce
- Level of JunB transcriptional activation (JunB; 4 hours, all levels of OS ≧about 100 μM H2O2): ~4 fold
- Fold change, JunB, 1-Hr (JunB; 50 μM H2O2, 1 h): 0 fold
- Fold change, JunB, 4-Hr (JunB; 50 μM H2O2, 4 h): 1 fold
- Fold change, JunB, 1-Hr (JunB; 100 μM H2O2, 1 h): 0 fold
- Fold change, JunB, 4-Hr (JunB; 100 μM H2O2, 4 h): 8 fold
- Fold change, JunB, 1-Hr (JunB; 200 μM H2O2, 1 h): 0 fold
- Fold change, JunB, 4-Hr (JunB; 200 μM H2O2, 4 h): 4 fold
- Fold change, JunB, 1-Hr (JunB; 350 μM H2O2, 1 h): 0 fold
- Fold change, JunB, 4-Hr (JunB; 350 μM H2O2, 4 h): 4 fold
- Fold change, JunB, 1-Hr (JunB; 500 μM H2O2, 1 h): 3 fold
- Fold change, JunB, 4-Hr (JunB; 500 μM H2O2, 4 h): 4 fold
- H2O2 level above which HO-1 threshold response is seen (HO-1): above 50 μM
- Fold change, HO-1, 1-Hr (HO-1; 50 μM H2O2, 1 h): 2 fold
- Fold change, HO-1, 4-Hr (HO-1; 50 μM H2O2, 4 h): 2 fold
- Fold change, HO-1, 1-Hr (HO-1; 100 μM H2O2, 1 h): 2 fold
- Fold change, HO-1, 4-Hr (HO-1; 100 μM H2O2, 4 h): 8 fold
- Fold change, HO-1, 1-Hr (HO-1; 200 μM H2O2, 1 h): 2 fold
- Fold change, HO-1, 4-Hr (HO-1; 200 μM H2O2, 4 h): 8 fold
- Fold change, HO-1, 1-Hr (HO-1; 350 μM H2O2, 1 h): 2 fold
- Fold change, HO-1, 4-Hr (HO-1; 350 μM H2O2, 4 h): 6 fold
- Fold change, HO-1, 1-Hr (HO-1; 500 μM H2O2, 1 h): 2 fold
- Fold change, HO-1, 4-Hr (HO-1; 500 μM H2O2, 4 h): 6 fold
- Fold change in expression, CRYBA, 1-Hr (CRYBA; 50 μM H2O2, 1 h): 0 fold
- Fold change in expression, CRYBA, 4-Hr (CRYBA; 50 μM H2O2, 4 h): −2 fold
- Fold change in expression, CRYBA, 1-Hr (CRYBA; 100 μM H2O2, 1 h): 1 fold
- Fold change in expression, CRYBA, 4-Hr (CRYBA; 100 μM H2O2, 4 h): 3 fold
- Fold change in expression, CRYBA, 1-Hr (CRYBA; 200 μM H2O2, 1 h): 2 fold
- Fold change in expression, CRYBA, 4-Hr (CRYBA; 200 μM H2O2, 4 h): 1 fold
- Fold change in expression, CRYBA, 1-Hr (CRYBA; 350 μM H2O2, 1 h): 3 fold
- Fold change in expression, CRYBA, 4-Hr (CRYBA; 350 μM H2O2, 4 h): 3 fold
- Fold change in expression, CRYBA, 1-Hr (CRYBA; 500 μM H2O2, 1 h): 4 fold
- Fold change in expression, CRYBA, 4-Hr (CRYBA; 500 μM H2O2, 4 h): 4 fold
